The source of these data is patent publication US20080051319A1, “Inhibiting JNK Signaling Promotes CNS Axon Regeneration” (Children's Medical Center Corporation, priority 2006, published 2008).

The test system of the assay is 4 week-old rat DRGs. The assay is described as follows: in vitro neurite outgrowth assay on immobilized AP-Nogo-66. In kind it is cell-based. Here is the method:
JNK is a member of the mitogen-activated protein kinase (MAP kinase) family which is abundantly expressed in axons and growth cones, and has been implicated in numerous roles including cell stress and cell proliferation. […] Briefly, 4 week-old rat DRGs were dissected, dissociated and plated onto immobilized substrates (AP (100 ng/cm^2) or AP-Nogo-66 (100 ng/cm^2)). Cells were cultured for 24 h before fixation with 4% paraformaldehyde and staining with a neuronal-specific anti-β-tubulin III antibody (Tuj-1, Covance). The average lengths of the longest neurite in individual neurons were measured from at least 150 neurons per condition, from duplicate wells and from three independent experiments, and quantified as described previously. Immunohistochemistry was performed using antibodies against p75 (Chemicon).

`Oc1c2ccccc2c2c3c(cccc13)N=N2` [SP600125]: the “concentrations resulting in an abortion of neurite extension” value is “above 5 μM”.
